Laboratory results from PubChem BioAssay AID1963959 (Molecular Pharmacology Branch, DTP, NCI, 2024).
Where “and” joins values, the source holds several entries; their conditions need not be identical. Equal entries are not always repeated.

Tested on: T-47D spheroids with HUVEC/MSC, viability
Test: Anticancer human tumor T-47D cell line growth inhibition [PI3K];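 note: spheroids exposed to agents for seven days before reading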;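 for viability, T/C: percent of DMSO vehicle control luminescence so 100% = untreated growth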
Settings: for viability, T/C: stronger effect = lower value
Procedure, shortened: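 High-throughput combination screen: PI3K inhibitors crossed with targeted small molecules on complex spheroids of tumor cells, HUVEC and MSCs at 37 degrees C, 5% CO2. Top concentration was at or near clinical Cmax (otherwise 10 microM), with half-log decrements.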

[1] = curve of first compound, second compound 0.0316 µM
[2] = curve of first compound, second compound 0.1 µM
[3] = curve of first compound, second compound 0.316 µM
[4] = curve of first compound, second compound 1 µM
[5] = curve of first compound, second compound 3.16 µM
[6] = curve of first compound, second compound 10 µM
[7] = second compound 0.0316 µM, first compound 0.0316 µM
[8] = second compound 0.0316 µM, first compound 0.1 µM
[9] = second compound 0.0316 µM, first compound 0.316 µM
[10] = second compound 0.0316 µM, first compound 1 µM
[11] = second compound 0.1 µM, first compound 0.0316 µM
[12] = second compound 0.1 µM, first compound 0.1 µM
[13] = second compound 0.1 µM, first compound 0.316 µM
[14] = second compound 0.1 µM, first compound 1 µM
[15] = second compound 0.316 µM, first compound 0.0316 µM
[16] = second compound 0.316 µM, first compound 0.1 µM
[17] = second compound 0.316 µM, first compound 0.316 µM
[18] = second compound 0.316 µM, first compound 1 µM
[19] = second compound 1 µM, first compound 0.0316 µM
[20] = second compound 1 µM, first compound 0.1 µM
[21] = second compound 1 µM, first compound 0.316 µM
[22] = second compound 1 µM, first compound 1 µM
[23] = second compound 3.16 µM, first compound 0.0316 µM
[24] = second compound 3.16 µM, first compound 0.1 µM
[25] = second compound 3.16 µM, first compound 0.316 µM
[26] = second compound 3.16 µM, first compound 1 µM
[27] = second compound 10 µM, first compound 0.0316 µM
[28] = second compound 10 µM, first compound 0.1 µM
[29] = second compound 10 µM, first compound 0.316 µM
[30] = second compound 10 µM, first compound 1 µM
[31] = second compound 0.0316 µM, first compound 3.16 µM
[32] = second compound 0.0316 µM, first compound 10 µM
[33] = second compound 0.1 µM, first compound 3.16 µM
[34] = second compound 0.1 µM, first compound 10 µM
[35] = second compound 0.316 µM, first compound 3.16 µM
[36] = second compound 0.316 µM, first compound 10 µM
[37] = second compound 1 µM, first compound 3.16 µM
[38] = second compound 1 µM, first compound 10 µM

SMILES: CCN1CCN(Cc2ccc(Nc3ncc(F)c(-c4cc(F)c5nc(C)n(C(C)C)c5c4)n3)nc2)CC1 + Cc1nc(NC(=O)N2CCCC2C(N)=O)sc1-c1ccnc(C(C)(C)C(F)(F)F)c1
- IC50 [1]: > 1 µM
- IC50 [2]: > 1 µM
- IC50 [3]: > 1 µM
- IC50 [4]: > 1 µM
- IC50 [5]: 0.00856 µM
- IC50 [6]: < 0.00316 µM
- viability, T/C (second compound 0.0316 µM, first compound 0.00316 µM): 111%
- viability, T/C (second compound 0.0316 µM, first compound 0.01 µM): 87.8%
- viability, T/C [7]: 89%
- viability, T/C [8]: 85%
- viability, T/C [9]: 80.9%
- viability, T/C [10]: 92.7%
- viability, T/C (second compound 0.1 µM, first compound 0.00316 µM): 100%
- viability, T/C (second compound 0.1 µM, first compound 0.01 µM): 73.7%
- viability, T/C [11]: 82.1%
- viability, T/C [12]: 72.3%
- viability, T/C [13]: 80.7%
- viability, T/C [14]: 85.2%
- viability, T/C (second compound 0.316 µM, first compound 0.00316 µM): 96%
- viability, T/C (second compound 0.316 µM, first compound 0.01 µM): 73.4%
- viability, T/C [15]: 70.2%
- viability, T/C [16]: 67%
- viability, T/C [17]: 64.4%
- viability, T/C [18]: 73.2%
- viability, T/C (second compound 1 µM, first compound 0.00316 µM): 78.9%
- viability, T/C (second compound 1 µM, first compound 0.01 µM): 64.5%
- viability, T/C [19]: 55.9%
- viability, T/C [20]: 51.9%
- viability, T/C [21]: 58.9%
- viability, T/C [22]: 70.3%
- viability, T/C (second compound 3.16 µM, first compound 0.00316 µM): 61.2%
- viability, T/C (second compound 3.16 µM, first compound 0.01 µM): 49.2%
- viability, T/C [23]: 44.2%
- viability, T/C [24]: 39.3%
- viability, T/C [25]: 47.1%
- viability, T/C [26]: 53.2%
- viability, T/C (second compound 10 µM, first compound 0.00316 µM): 30.5%
- viability, T/C (second compound 10 µM, first compound 0.01 µM): 26%
- viability, T/C [27]: 24.5%
- viability, T/C [28]: 27.2%
- viability, T/C [29]: 33.1%
- viability, T/C [30]: 38.6%

SMILES: C[C@@H](NC(=O)c1ncnc(N)c1Cl)c1ncc(C(=O)Nc2cc(C(F)(F)F)c(Cl)cn2)s1 + CC(Nc1ncnc2nc[nH]c12)c1cc2cccc(Cl)c2c(=O)n1-c1ccccc1
- IC50 [1]: > 10 µM
- IC50 [2]: > 10 µM
- IC50 [3]: > 10 µM
- IC50 [4]: > 10 µM
- IC50 [5]: > 10 µM
- IC50 [6]: > 10 µM
- viability, T/C [7]: 75.3%
- viability, T/C [8]: 88.3%
- viability, T/C [9]: 83.8%
- viability, T/C [10]: 89.1%
- viability, T/C [31]: 108%
- viability, T/C [32]: 92.5%
- viability, T/C [11]: 106%
- viability, T/C [12]: 90.2%
- viability, T/C [13]: 86%
- viability, T/C [14]: 84.3%
- viability, T/C [33]: 89.9%
- viability, T/C [34]: 90.9%
- viability, T/C [15]: 94.8%
- viability, T/C [16]: 93.2%
- viability, T/C [17]: 90.3%
- viability, T/C [18]: 84%
- viability, T/C [35]: 84.7%
- viability, T/C [36]: 100%
- viability, T/C [19]: 80.2%
- viability, T/C [20]: 105%
- viability, T/C [21]: 80.9%
- viability, T/C [22]: 89.2%
- viability, T/C [37]: 85.8%
- viability, T/C [38]: 90%
- viability, T/C [23]: 72.2%
- viability, T/C [24]: 91.2%
- viability, T/C [25]: 97.4%
- viability, T/C [26]: 98.8%
- viability, T/C (second compound 3.16 µM, first compound 3.16 µM): 82%
- viability, T/C (second compound 3.16 µM, first compound 10 µM): 80.7%
- viability, T/C [27]: 105%
- viability, T/C [28]: 82.1%
- viability, T/C [29]: 103%
- viability, T/C [30]: 84.1%
- viability, T/C (second compound 10 µM, first compound 3.16 µM): 86.3%
- viability, T/C (second compound 10 µM, first compound 10 µM): 88.8%

SMILES: C#Cc1c(F)ccc2cc(O)cc(-c3ncc4c(N5CC6CCC(C5)N6)nc(OCC56CCCN5CC(F)C6)nc4c3F)c12 (stereo not drawn) + CC(Nc1ccc2c(c1)OCCn1cc(N3C(=O)OCC3C(F)F)nc1-2)C(N)=O
- IC50 (curve of first compound, second compound 0.00316 µM): > 10 µM
- IC50 (curve of first compound, second compound 0.01 µM): > 10 µM
- IC50 [1]: > 10 µM
- IC50 [2]: > 10 µM
- IC50 [3]: > 10 µM
- IC50 [4]: > 10 µM
- viability, T/C (second compound 0.00316 µM, first compound 0.0316 µM): 96.3%
- viability, T/C (second compound 0.00316 µM, first compound 0.1 µM): 85.3%
- viability, T/C (second compound 0.00316 µM, first compound 0.316 µM): 85.6%
- viability, T/C (second compound 0.00316 µM, first compound 1 µM): 78.3%
- viability, T/C (second compound 0.00316 µM, first compound 3.16 µM): 90.9%
- viability, T/C (second compound 0.00316 µM, first compound 10 µM): 84.1%
- viability, T/C (second compound 0.01 µM, first compound 0.0316 µM): 107%
- viability, T/C (second compound 0.01 µM, first compound 0.1 µM): 82.3%
- viability, T/C (second compound 0.01 µM, first compound 0.316 µM): 102%
- viability, T/C (second compound 0.01 µM, first compound 1 µM): 100%
- viability, T/C (second compound 0.01 µM, first compound 3.16 µM): 95.2%
- viability, T/C (second compound 0.01 µM, first compound 10 µM): 92.9%
- viability, T/C [7]: 83.3%
- viability, T/C [8]: 77.8%
- viability, T/C [9]: 97.8%
- viability, T/C [10]: 79%
- viability, T/C [31]: 94.6%
- viability, T/C [32]: 89.1%
- viability, T/C [11]: 99.8%
- viability, T/C [12]: 83%
- viability, T/C [13]: 79%
- viability, T/C [14]: 88.6%
- viability, T/C [33]: 91.1%
- viability, T/C [34]: 81.4%
- viability, T/C [15]: 62.7%
- viability, T/C [16]: 70.7%
- viability, T/C [17]: 76.8%
- viability, T/C [18]: 59.9%
- viability, T/C [35]: 70.8%
- viability, T/C [36]: 61.3%
- viability, T/C [19]: 48.8%
- viability, T/C [20]: 55.3%
- viability, T/C [21]: 61.2%
- viability, T/C [22]: 43.7%
- viability, T/C [37]: 46.1%
- viability, T/C [38]: 62.5%

SMILES: COc1c(OCCCN2CCOCC2)ccc2c3n(c(=NC(=O)c4cnc(N)nc4)nc12)CCN3
- viability, T/C (compound 0.01 µM): 99.1% [middle of 8 runs]
- viability, T/C (compound 0.0316 µM): 70.4% [middle of 8 runs]
- viability, T/C (compound 0.1 µM): 45.4% [middle of 8 runs]
- viability, T/C (compound 0.316 µM): 20.5% [middle of 8 runs]
- viability, T/C (compound 1 µM): 7.09% [middle of 8 runs]
- IC50 (compound alone, run of 04/25/2023): 86.9 nM [middle of 8 runs]

SMILES: CC(Cn1ccc(-c2ccc(C#N)c(Cl)c2)n1)NC(=O)c1cc(C(C)O)[nH]n1 (stereo not drawn)
- viability, T/C (compound 0.0316 µM): 100% [middle of 4 runs]
- viability, T/C (compound 0.1 µM): 107% [middle of 4 runs]
- viability, T/C (compound 0.316 µM): 92.3% [middle of 4 runs]
- viability, T/C (compound 1 µM): 95.2% [middle of 4 runs]
- viability, T/C (compound 3.16 µM): 89.8% [middle of 4 runs]
- viability, T/C (compound 10 µM): 58.7% [middle of 4 runs]
- IC50 (curve of compound): > 10 µM

SMILES: C=CC(=O)N1CCN(c2nc(=O)n(-c3c(C)ccnc3C(C)C)c3nc(-c4c(O)cccc4F)c(F)cc23)C(C)C1 (stereo not drawn)
- viability, T/C (compound 0.0316 µM): 94.8% (2×) and 125% and 115%
- viability, T/C (compound 0.1 µM): 96.8% [middle of 4 runs]
- viability, T/C (compound 1 µM): 98.7% and 126% (2×) and 94.5%
- IC50 (curve of compound): > 10 µM
